Laboratory results from publication PMC9006931, “Altered Response Pattern following AZD5582 Treatment of SIV-Infected, ART-Suppressed Rhesus Macaque Infants” (Journal of Virology, 2022).

Experiments:
[1] = test system: CD4+ T cells from SIV-infected, ART-suppressed adult RMs; assay: Ex vivo viral RNA induction assay, adult CD4+ T cells; assay type: cell-based, rhesus macaque; conditions: 100 nM, 9 days, in presence of DTG+FTC
Text: Following confirmation of ncNF-κB pathway activation in infant naive and memory CD4^+ T cells ex vivo, we next sought to evaluate SIV reactivation following ex vivo AZD5582 stimulation in CD4^+ T cells isolated from SIV-infected, ART-suppressed infant RMs compared to CD4^+ T cells from SIV-infected, ART-suppressed adult RMs. To do so, we isolated CD4^+ T cells through negative selection from the peripheral blood of five SIV-infected, ART-suppressed adult RMs and five SIV-infected, ART-suppressed infant RMs. Cells were stimulated with either 100 nM AZD5582 or rhesus specific anti-CD2/CD3/CD28 beads (as a positive control) in the presence of ART (DTG+FTC) for 9 days. The supernatant was collected to quantify SIVgag RNA through qPCR as a measure of viral reactivation.
Viable cryopreserved PBMCs from SIV-infected, ART-suppressed infant and adult RMs collected 34 to 97 weeks post ART initiation were thawed, and CD4^+ T cells were enriched by negative selection using the NHP CD4^+ T cell isolation kit (Miltenyi Biotec). […] The viral RNA content of frozen cell-free culture supernatants collected on day 9 was determined using the SIVgag qPCR described above.

memory CD4+ T cells = assay: Ki67 expression by whole blood flow cytometry, memory CD4+ T cells; assay type: in vivo, rhesus macaque; conditions: for Ki67 expression in memory CD4+ T cells: AZD5582 treated infant RMs
Protocol: The ncNF-κB pathway plays an important role in regulating T cell differentiation without causing broad systemic inflammation ([22]). We have previously observed a stimulatory effect on peripheral T cells following AZD5582 treatment specifically measurable through increased intracellular Ki67 expression ([17]). To further assess the effect of AZD5582 on infant RMs, flow cytometry was performed longitudinally on whole blood on the day of doses 1, 3, 6, and 9 and both 48 to 72h and 7 days after each of these doses. These time points were selected to allow longitudinal evaluation while remaining within blood volume constraints.
Multicolor flow cytometric analysis was performed on whole blood (WB) or cell suspensions using predetermined optimal concentrations of the following fluorescently conjugated monoclonal antibodies (MAbs). For WB T cell analysis the following MAbs were used: CD3-allophycocyanin (APC)-Cy7 (clone SP34-2), CD95-phycoerythrin (PE)-Cy5 (clone DX2), Ki67-AF700 (clone B56), HLA-DR-peridinin chlorophyll protein (PerCP)-Cy5.5 (clone G46-6), CCR7-fluorescein isothiocyanate (FITC) (clone 150503), CCR5-APC (clone 3A9), CD62L (clone SK11), and CD45-RA-PE-Cy7 (clone L45) from BD Biosciences; CD8-BV711 (clone RPA-T8), CD4-BV650 (clone OKT4), and PD-1-BV421 (clone EH12.2H7) from BioLegend; and CD28-ECD (clone CD28-2) from Beckman-Coulter. Flow cytometric acquisition and analysis of samples were performed on at least 100,000 events on an AURORA flow cytometer driven by the SpectroFlo software package (Cytek). Analyses of the acquired data were performed using FlowJo version 10.0.4 software (TreeStar).

[2] = design: method as in PMID 31969707; conditions: adult RMs (n = 7), matched doses, plasma; cited from earlier work

With `CN[C@@H](C)C(=O)N[C@H](C(=O)N1CCC[C@H]1C(=O)N[C@H]1c2ccccc2C[C@H]1OCC#CC#CCO[C@@H]1Cc2ccccc2[C@@H]1NC(=O)[C@@H]1CCCN1C(=O)[C@@H](NC(=O)[C@H](C)NC)C1CCCCC1)C1CCCCC1` [AZD5582] the “Animals whose CD4+ T cell cultures showed increased SIV RNA expression in supernatant” value [1] was 3/5, the “Mean Ki67 expression in peripheral memory CD4+ T cells” value (memory CD4+ T cells; 3-days post-AZD5582 (doses 1, 3, 6, 9), P = 0.02) was 28.4% and the “Ki67 expression in memory CD4+ T cells” value (memory CD4+ T cells; 7 days following dose 1) was 46.9%. For the same compound, the “Ki67 expression in memory CD4+ T cells” value (memory CD4+ T cells; before the increase seen after dose 1) was 8.7%, the “Other markers of activation, including HLA-DR and PD-1” value (memory CD4+ T cells; T cells following AZD5582 treatment, infant RMs) was “did not observe increases” and the “Mean Ki67 expression in peripheral memory CD4+ T cells” value (memory CD4+ T cells; baseline (immediately before doses 1, 3, 6, 9)) was 21.0%. For the same compound, the “Average increase of Ki67 expression in memory CD4+ T cells after dose 1” value (memory CD4+ T cells; relative to three baseline measurements, treated infant RMs) was 24.3%, the AUC0-2h [2] was 512 ng·h/mL and the Cmax [2] was 802 ng/mL.
